Experiments:
[1] = Protein binding in rat blood assessed as unbound fraction at 1 ug/ml incubated for 4 hrs by LC-MS/MS-based rapid equilibrium dialysis method; format: ADME, tissue-based; conditions: at 1 µg/mL
Integrin alpha-V/beta-6 [2] = molecular target: T1, Integrin alpha-V/beta-6 (Homo sapiens, UniProt P06756+P18564); experiment: Inhibition of integrin alphavbeta6 (unknown origin) by radioligand binding assay; format: protein-complex assay
[3] = Stability in cryopreserved Wistar-Han rat hepatocytes assessed as compound turnover rate at 0.5 uM measured up to 60 mins by LC-MS/MS analysis; format: ADME, cell-based, Hepatocyte; conditions: 1 h
[4] = Drug metabolism assessed as unmethylated (3S)-3-[3-(3,5-dimethylpyrazol-1-yl)phenyl]-4-[(3R)-3-[2-(5,6,7,8-tetrahydro-1,8-naphthyridin-2-yl)ethyl]pyrrolidin-1-yl]butanoic acid hydrochloride formation
Homo sapiens [5] = organism: Homo sapiens; experiment: Selectivity ratio of IC50 for integrin alphavbeta8 (unknown origin) expressed in human K562 cells to IC50 for integrin alphavbeta6 (unknown origin) expressed in human K562 cells; format: cell-based
Integrin alpha-V/beta-1 = Integrin alpha-V/beta-1 (Homo sapiens, UniProt P05556+P06756)
Sequence of Integrin alpha-V/beta-1 (P05556 21-798 limits assumed): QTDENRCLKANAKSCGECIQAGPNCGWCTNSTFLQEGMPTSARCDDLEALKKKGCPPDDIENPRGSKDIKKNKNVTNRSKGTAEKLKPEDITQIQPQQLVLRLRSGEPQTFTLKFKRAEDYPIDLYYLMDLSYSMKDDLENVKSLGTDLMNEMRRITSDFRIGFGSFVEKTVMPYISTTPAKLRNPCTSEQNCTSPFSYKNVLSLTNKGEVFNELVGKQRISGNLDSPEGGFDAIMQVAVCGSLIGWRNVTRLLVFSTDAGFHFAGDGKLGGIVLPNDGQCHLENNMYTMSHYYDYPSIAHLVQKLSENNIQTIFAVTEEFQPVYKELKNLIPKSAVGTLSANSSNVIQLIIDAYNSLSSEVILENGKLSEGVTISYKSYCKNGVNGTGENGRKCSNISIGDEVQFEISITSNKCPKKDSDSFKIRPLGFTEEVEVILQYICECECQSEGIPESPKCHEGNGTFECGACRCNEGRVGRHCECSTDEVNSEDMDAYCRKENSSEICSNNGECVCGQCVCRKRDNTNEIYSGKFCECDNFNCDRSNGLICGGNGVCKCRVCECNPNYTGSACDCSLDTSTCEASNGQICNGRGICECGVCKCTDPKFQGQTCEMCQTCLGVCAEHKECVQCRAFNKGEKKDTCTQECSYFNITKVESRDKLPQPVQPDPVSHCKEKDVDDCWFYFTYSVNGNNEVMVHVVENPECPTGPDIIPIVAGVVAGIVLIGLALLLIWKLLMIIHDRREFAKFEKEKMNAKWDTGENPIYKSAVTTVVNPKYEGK
Sequence of Integrin alpha-V/beta-1 (P06756 31-889 limits assumed): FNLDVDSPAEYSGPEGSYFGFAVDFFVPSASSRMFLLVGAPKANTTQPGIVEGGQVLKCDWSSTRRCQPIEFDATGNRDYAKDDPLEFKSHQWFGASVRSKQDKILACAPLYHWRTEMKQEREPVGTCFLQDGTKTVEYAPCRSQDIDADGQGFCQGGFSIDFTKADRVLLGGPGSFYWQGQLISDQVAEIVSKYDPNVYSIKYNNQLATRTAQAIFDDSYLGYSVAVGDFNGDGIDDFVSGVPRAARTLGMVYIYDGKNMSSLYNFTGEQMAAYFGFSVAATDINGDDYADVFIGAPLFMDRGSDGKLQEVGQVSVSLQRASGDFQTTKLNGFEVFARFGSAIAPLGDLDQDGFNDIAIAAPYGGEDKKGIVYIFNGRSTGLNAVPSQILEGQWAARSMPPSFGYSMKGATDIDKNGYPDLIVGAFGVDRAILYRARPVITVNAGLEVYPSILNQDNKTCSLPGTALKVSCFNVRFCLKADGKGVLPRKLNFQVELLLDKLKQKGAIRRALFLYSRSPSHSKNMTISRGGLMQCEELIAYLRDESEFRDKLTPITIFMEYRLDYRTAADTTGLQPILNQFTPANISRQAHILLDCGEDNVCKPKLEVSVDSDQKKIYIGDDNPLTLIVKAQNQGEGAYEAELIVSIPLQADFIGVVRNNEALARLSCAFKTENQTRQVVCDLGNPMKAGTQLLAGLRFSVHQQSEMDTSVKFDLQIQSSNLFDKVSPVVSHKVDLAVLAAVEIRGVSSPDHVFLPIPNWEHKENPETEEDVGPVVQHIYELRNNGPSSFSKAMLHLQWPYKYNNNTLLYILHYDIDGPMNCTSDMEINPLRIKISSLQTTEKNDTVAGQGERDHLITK
Sequence of Integrin alpha-V/beta-1 (P06756 891-1048 limits assumed): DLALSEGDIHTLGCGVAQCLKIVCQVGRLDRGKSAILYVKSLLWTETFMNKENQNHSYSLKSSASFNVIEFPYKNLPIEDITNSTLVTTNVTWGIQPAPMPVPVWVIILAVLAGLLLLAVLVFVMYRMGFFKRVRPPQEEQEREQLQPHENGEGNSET
Description: Inhibition of integrin alphavbeta1 (unknown origin) expressed in human A549 cells assessed as reduction in cell adhesion to GST-LAP1 (242 to 252 amino acids) incubated for 30 mins by fluorescent probe BCECF-AM based fluorescence assay

Homo sapiens [6] = organism: Homo sapiens; experiment: Selectivity ratio of IC50 for integrin alphavbeta5 (unknown origin) expressed in human K562 cells to IC50 for integrin alphavbeta6 (unknown origin) expressed in human K562 cells; format: cell-based
Integrin alpha-V/beta-5 = Integrin alpha-V/beta-5 (Homo sapiens, UniProt P06756+P18084)
Sequence of Integrin alpha-V/beta-5 (P06756 31-889 limits assumed): as the sequence (P06756 31-889 limits assumed) above
Sequence of Integrin alpha-V/beta-5 (P06756 891-1048 limits assumed): as the sequence (P06756 891-1048 limits assumed) above
Sequence of Integrin alpha-V/beta-5 (P18084 24-799 limits assumed): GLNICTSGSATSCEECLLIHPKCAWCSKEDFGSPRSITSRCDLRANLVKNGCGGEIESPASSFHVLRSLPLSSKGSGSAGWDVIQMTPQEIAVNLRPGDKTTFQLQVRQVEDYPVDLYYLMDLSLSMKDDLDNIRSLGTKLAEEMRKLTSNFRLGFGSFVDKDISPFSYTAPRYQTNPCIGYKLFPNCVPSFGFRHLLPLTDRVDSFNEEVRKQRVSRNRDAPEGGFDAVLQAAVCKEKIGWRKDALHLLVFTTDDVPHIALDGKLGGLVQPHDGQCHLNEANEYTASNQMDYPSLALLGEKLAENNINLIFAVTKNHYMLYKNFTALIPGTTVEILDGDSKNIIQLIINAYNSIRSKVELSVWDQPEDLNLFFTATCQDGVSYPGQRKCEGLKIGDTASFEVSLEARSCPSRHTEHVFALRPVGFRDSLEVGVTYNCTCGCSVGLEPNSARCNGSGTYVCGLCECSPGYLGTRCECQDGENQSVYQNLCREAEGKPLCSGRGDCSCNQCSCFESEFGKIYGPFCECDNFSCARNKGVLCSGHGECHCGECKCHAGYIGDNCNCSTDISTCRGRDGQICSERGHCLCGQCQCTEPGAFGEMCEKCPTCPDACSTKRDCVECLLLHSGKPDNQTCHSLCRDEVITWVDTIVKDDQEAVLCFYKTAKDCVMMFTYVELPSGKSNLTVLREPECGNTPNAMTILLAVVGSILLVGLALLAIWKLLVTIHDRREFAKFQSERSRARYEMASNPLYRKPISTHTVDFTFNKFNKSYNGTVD
Description: Inhibition of integrin alphavbeta5 (unknown origin) expressed in human K562 cells assessed as reduction in cell adhesion to human vitronectin incubated for 30 mins by fluorescent probe BCECF-AM based fluorescence assay

[7] = Protein binding in human lung homogenates assessed as fraction unbound at 1 ug/ml incubated for 4 hrs by LC-MS/MS-based rapid equilibrium dialysis method; format: ADME, tissue-based; conditions: at 1 µg/mL
Integrin alpha-V/beta-6 [8] = molecular target: T1, Integrin alpha-V/beta-6
Description: Inhibition of integrin alphavbeta6 (unknown origin) expressed in human K562 cells assessed as reduction in cell adhesion to GST-LAP1 (242 to 252 amino acids) incubated for 30 mins by fluorescent probe BCECF-AM based fluorescence assay

[9] = Half-life in dual cannulated Wistar-Han rat at 1 mg/kg, iv administered as infusion for 60 mins and measured up to 7 hrs by LC-MS/MS analysis; format: ADME, organism-based; conditions: in vivo
[10] = Protein binding in human blood assessed as fraction unbound at 1 ug/ml incubated for 4 hrs by LC-MS/MS-based rapid equilibrium dialysis method; format: ADME, tissue-based; conditions: at 1 µg/mL
Homo sapiens [11] = organism: Homo sapiens; experiment: Selectivity ratio of IC50 for integrin alphavbeta1 (unknown origin) expressed in human A549 cells to IC50 for integrin alphavbeta6 (unknown origin) expressed in human K562 cells; format: cell-based
[12] = molecular target: Voltage-gated inwardly rectifying potassium channel KCNH2 (Homo sapiens, UniProt Q12809); experiment: Inhibition of human ERG expressed in CHO-K1 cells at -80 mV holding potential by IonWorks barracuda automated electrophysiology method; format: cell-based
Integrin alpha-V/beta-8 = Integrin alpha-V/beta-8 (Homo sapiens, UniProt P06756+P26012)
Sequence of Integrin alpha-V/beta-8 (P06756 31-889 limits assumed): as the sequence (P06756 31-889 limits assumed) above
Sequence of Integrin alpha-V/beta-8 (P06756 891-1048 limits assumed): as the sequence (P06756 891-1048 limits assumed) above
Sequence of Integrin alpha-V/beta-8 (P26012 43-769 limits assumed): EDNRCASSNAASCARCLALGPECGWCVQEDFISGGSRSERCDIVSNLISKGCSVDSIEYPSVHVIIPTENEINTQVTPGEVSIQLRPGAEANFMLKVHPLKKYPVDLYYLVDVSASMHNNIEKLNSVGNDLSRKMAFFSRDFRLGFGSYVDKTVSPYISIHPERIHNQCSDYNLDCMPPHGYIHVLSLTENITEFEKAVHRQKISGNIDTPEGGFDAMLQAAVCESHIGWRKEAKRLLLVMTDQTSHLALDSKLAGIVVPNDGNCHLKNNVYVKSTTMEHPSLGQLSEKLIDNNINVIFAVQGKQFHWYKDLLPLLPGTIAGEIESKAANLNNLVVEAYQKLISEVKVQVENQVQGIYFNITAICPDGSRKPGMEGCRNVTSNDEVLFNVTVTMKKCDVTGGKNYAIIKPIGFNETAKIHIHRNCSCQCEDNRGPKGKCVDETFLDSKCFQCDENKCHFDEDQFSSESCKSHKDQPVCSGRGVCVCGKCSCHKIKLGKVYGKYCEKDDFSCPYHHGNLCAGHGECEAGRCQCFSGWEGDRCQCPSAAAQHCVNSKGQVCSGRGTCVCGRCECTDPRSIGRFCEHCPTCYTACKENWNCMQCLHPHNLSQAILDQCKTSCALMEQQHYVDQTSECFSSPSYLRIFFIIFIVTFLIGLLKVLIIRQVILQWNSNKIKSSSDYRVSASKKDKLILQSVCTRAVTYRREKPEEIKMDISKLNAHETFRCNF
Description: Inhibition of integrin alphavbeta8 (unknown origin) expressed in human K562 cells assessed as reduction in cell adhesion to GST-LAP1 (242 to 252 amino acids) incubated for 30 mins by fluorescent probe BCECF-AM based fluorescence assay

physchem [13] = conditions: buffer, pH 7.4
Description: Lipophilicity, logD of the compound at pH 7.4 by chromatographic method

[14] = Stability in cryopreserved human hepatocytes at 0.5 uM measured up to 60 mins by LC-MS/MS analysis; format: ADME, cell-based, Hepatocyte; conditions: 1 h
Integrin alpha-V/beta-3 = Integrin alpha-V/beta-3 (Homo sapiens, UniProt P05106+P06756)
Description: Inhibition of integrin alphavbeta3 (unknown origin) expressed in human K562 cells assessed as reduction in cell adhesion to GST-LAP1 (242 to 252 amino acids) incubated for 30 mins by fluorescent probe BCECF-AM based fluorescence assay

physchem [15] = conditions: buffer
Description: (§1) Aqueous kinetic solubility of the compund by CLND method

in vitro = conditions: not told
Description: Permeability of the compound

[16] = Unbound blood clearance in dual cannulated Wistar-Han rat at 1 mg/kg, iv administered as infusion for 60 mins and measured up to 7 hrs by LC-MS/MS analysis; format: ADME, organism-based; conditions: in vivo
[17] = Volume of distribution in dual cannulated Wistar-Han rat at 1 mg/kg, iv administered as infusion for 60 mins and measured up to 7 hrs by LC-MS/MS analysis; format: ADME, organism-based; conditions: in vivo
[18] = Blood clearance in dual cannulated Wistar-Han rat at 1 mg/kg, iv administered as infusion for 60 mins and measured up to 7 hrs by LC-MS/MS analysis; format: ADME, organism-based; conditions: whole blood
Homo sapiens [19] = organism: Homo sapiens; experiment: Selectivity ratio of IC50 for integrin alphavbeta3 (unknown origin) expressed in human K562 cells to IC50 for integrin alphavbeta6 (unknown origin) expressed in human K562 cells; format: cell-based
[20] = Unbound blood clearance in dual cannulated Wistar-Han rat at 1 mg/kg, iv administered as infusion for 30 mins and measured up to 24 hrs by LC-MS/MS analysis; format: ADME, organism-based; conditions: in vivo
[21] = Volume of distribution in dual cannulated Wistar-Han rat at 1 mg/kg, iv administered as infusion for 30 mins and measured up to 24 hrs by LC-MS/MS analysis; format: ADME, organism-based; conditions: in vivo
[22] = Inhibition of integrin alphavbeta8 (unknown origin) by radioligand binding assay; parameters: species or system Homo sapiens
[23] = Blood clearance in dual cannulated Wistar-Han rat at 1 mg/kg, iv administered as infusion for 30 mins and measured up to 24 hrs by LC-MS/MS analysis; format: ADME, organism-based; conditions: whole blood
[24] = Inhibition of human LAP binding to human integrin alphavbeta8 after 2 hrs
[25] = buffer
Description: as §1

T1 sequence (P06756 31-889 limits assumed): as the sequence (P06756 31-889 limits assumed) above
T1 sequence (P06756 891-1048 limits assumed): as the sequence (P06756 891-1048 limits assumed) above
T1 sequence (P18564 22-788 limits assumed): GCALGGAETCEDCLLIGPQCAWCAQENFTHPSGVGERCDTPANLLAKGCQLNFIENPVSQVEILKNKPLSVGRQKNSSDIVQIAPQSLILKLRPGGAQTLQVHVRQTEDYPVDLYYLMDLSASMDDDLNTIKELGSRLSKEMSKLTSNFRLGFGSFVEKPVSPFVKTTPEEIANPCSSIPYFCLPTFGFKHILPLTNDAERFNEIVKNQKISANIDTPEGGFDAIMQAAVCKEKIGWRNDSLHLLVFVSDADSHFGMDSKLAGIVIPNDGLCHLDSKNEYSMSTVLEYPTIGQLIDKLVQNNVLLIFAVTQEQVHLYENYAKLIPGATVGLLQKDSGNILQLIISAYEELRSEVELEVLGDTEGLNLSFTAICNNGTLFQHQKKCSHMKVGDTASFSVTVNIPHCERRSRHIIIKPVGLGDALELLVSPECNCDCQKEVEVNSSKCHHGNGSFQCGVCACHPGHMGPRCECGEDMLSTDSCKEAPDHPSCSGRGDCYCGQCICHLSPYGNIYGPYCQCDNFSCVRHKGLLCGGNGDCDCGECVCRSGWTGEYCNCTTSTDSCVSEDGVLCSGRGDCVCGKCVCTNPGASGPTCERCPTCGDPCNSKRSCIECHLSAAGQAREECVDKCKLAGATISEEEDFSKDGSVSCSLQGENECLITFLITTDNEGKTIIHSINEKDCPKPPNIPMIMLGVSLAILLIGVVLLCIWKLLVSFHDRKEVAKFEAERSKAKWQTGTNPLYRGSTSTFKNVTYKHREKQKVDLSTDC

| SMILES | IC50 (Integrin alpha-V/beta-1) | IC50 (Integrin alpha-V/beta-5) | IC50 (Integrin alpha-V/beta-6 [8]) | IC50 (Integrin alpha-V/beta-8) | chromatographic logD (physchem [13]) | IC50 (Integrin alpha-V/beta-3) | Kinetic_solubility [25] | further results |
| --- | --- | --- | --- | --- | --- | --- | --- | --- |
| Cc1cc(C)n(-c2cccc([C@H](CC(=O)[O-])C[N@@+]3(C)CC[C@@H](CCc4ccc5c(n4)NCCC5)C3)c2)n1 | 631 nM | 501 nM | 3.16 nM | 79.4 nM | 2.5 | 6310 nM |  | fraction unbound at 4 h, 1 ug/ml [1]: 0.583; Ki (Integrin alpha-V/beta-6 [2]): 0.107 nM; Drug metabolism [3]: 1.22 mL/min/g; Drug metabolism [4]: Metabolite not detected; Ratio IC50 (Homo sapiens [5]): 10 to 1000; Ratio IC50 (Homo sapiens [6]): 10 to 1000; fraction unbound at 4 h, 1 ug/ml [7]: 0.097; half-life [9]: 13.2 min; fraction unbound at 4 h, 1 ug/ml [10]: 0.503; Ratio IC50 (Homo sapiens [11]): 10 to 1000; IC50 [12]: > 50100 nM; Stability [14]: < 0.45 mL/min/g; solubility kinetic (physchem [15]): > 1000 µg/mL; Papp (in vitro): < 0.8 ×10⁻⁶ cm/s; CL free [16]: 190 mL/min/kg; Vd [17]: 1.1 L/kg; clearance [18]: 87.6 mL/min/kg; Ratio IC50 (Homo sapiens [19]): 10 to 1000 |
| Cc1cc(C)n(-c2cccc([C@H](CC(=O)O)CN3CC[C@@H](CCc4ccc5c(n4)NCCC5)C3)c2)n1.Cl [GSK-3008348] |  |  |  |  |  |  |  | Drug metabolism [3]: 9.45 mL/min/g; CL free [20]: 150 mL/min/kg; Vd [21]: 2.1 L/kg; pKi [22]: 8.7; clearance [23]: 56 mL/min/kg; Stability [14]: < 0.86 mL/min/g |
| CC(C)(C)c1cc(Br)cc([C@H](CC(=O)O)NC(=O)CNC(=O)c2cc(O)cc(NC3=NCC(O)CN3)c2)c1 (stereo partly specified) |  |  |  |  |  |  |  | IC50 [24]: 0.2 nM |
| Cc1ccnn1-c1cccc([C@H](CC(=O)[O-])C[N+]2(C)CC[C@@H](CCc3ccc4c(n3)NCCC4)C2)c1 (mixture of isomers) | 1580 nM | 631 nM |  | 100 nM | 2.1 | 6310 nM | Soluble |  |
| CC[N@+]1(C[C@@H](CC(=O)[O-])c2cccc(-n3nc(C)cc3C)c2)CC[C@@H](CCc2ccc3c(n2)NCCC3)C1 | 5010 nM | > 10000 nM | 39.8 nM | 1260 nM | 2.8 |  | Soluble |  |

Continued, in another order:

| IC50 (Integrin alpha-V/beta-1) | IC50 (Integrin alpha-V/beta-5) | IC50 (Integrin alpha-V/beta-6 [8]) | IC50 (Integrin alpha-V/beta-8) | chromatographic logD (physchem [13]) | IC50 (Integrin alpha-V/beta-3) | Kinetic_solubility [25] | SMILES | further results |
| --- | --- | --- | --- | --- | --- | --- | --- | --- |
| 794 nM | 251 nM | 12.6 nM | 126 nM | 1.8 | 5010 nM | Soluble | C[N+]1(C[C@@H](CC(=O)[O-])c2cccc(N3CCOCC3)c2)CC[C@@H](CCc2ccc3c(n2)NCCC3)C1 (mixture of isomers) |  |
| 3980 nM | 79.4 nM | 12.6 nM | 200 nM | 1.9 | 3980 nM | Soluble | C[N+]1(C[C@@H](CC(=O)[O-])c2cccc(O[C@@H]3CCOC3)c2)CC[C@@H](CCc2ccc3c(n2)NCCC3)C1 (mixture of isomers) |  |
|  |  |  |  | 2.3 |  | Soluble | O=C(O)C[C@H](CN1CC[C@@H](CCc2ccc3c(n2)NCCC3)C1)c1cccc(N2CCOCC2)c1 |  |
| 2000 nM | 1000 nM | 3.16 nM | 63.1 nM | 2.4 | > 10000 nM | Soluble | Cc1cc(C)n(-c2cccc([C@H](CC(=O)[O-])C[N@+]3(C)CC[C@@H](CCc4ccc5c(n4)NCCC5)C3)c2)n1 | Ki (Integrin alpha-V/beta-6 [2]): 0.174 nM; Ratio IC50 (Homo sapiens [5]): 10 to 1000; Ratio IC50 (Homo sapiens [6]): 10 to 1000; Ratio IC50 (Homo sapiens [11]): 10 to 1000; Ratio IC50 (Homo sapiens [19]): 10 to 1000 |

Reference: ChEMBL document CHEMBL4373707 (J Med Chem, 2019)
